The results in this text go back to PubChem BioAssay (NCI).

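Dose response: 5 concentrations. Exposure: 48 h. Format: 96-well plates. Endpoint: linear interpolation; highest concentration if not reached. The concentration for 50% growth inhibition is given as GI50. TGI: total growth inhibition.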

Some test systems named below: KM12 colon; SK-MEL-2 melanoma; OVCAR-5 ovarian; MALME-3M melanoma; SF-295 CNS; OVCAR-8 ovarian; SW-620 colon; HOP-62 NSCLC.
Common to all, as to experiment: NCI anticancer screen, dose series, 48 h

Consider `CCOC(=O)c1c(C)n([O-])c2cc(F)c(F)cc2[n+]1=O`, for which the GI50 in the assay on KM12 colon is 15.4 µM; with SK-MEL-2 melanoma, 2.8 µM; with OVCAR-5 ovarian, 1.78 µM; in the assay with MALME-3M melanoma it was 0.717 µM; with SF-295 CNS, 1.74 µM; in the assay on OVCAR-8 ovarian it was 0.88 µM. Moreover, the figures for the GI50 in the assay with SW-620 colon and in the assay with HOP-62 NSCLC were 0.428 µM and 2.1 µM, respectively. In addition, the TGI with KM12 colon was 35.6 µM; in the assay with OVCAR-5 ovarian, 3.2 µM; in the assay with MALME-3M melanoma, 1.83 µM; in the assay with SF-295 CNS it was 3.41 µM; with OVCAR-8 ovarian, 2.47 µM; in the assay on SW-620 colon, 1.57 µM. The compound also showed a TGI in the assay with HOP-62 NSCLC of 3.74 µM.

Consider `CCc1ccc(Oc2c(-c3ccc(OCCc4cccc(C(F)(F)F)c4)cc3O)n[nH]c2C(F)(F)F)cc1`, for which the GI50 in the assay with KM12 colon was 4.2 µM; in the assay on SK-MEL-2 melanoma it was 6.54 µM; in the assay with OVCAR-5 ovarian, 7.64 µM; with MALME-3M melanoma it was 5.42 µM; with SF-295 CNS it was 8.12 µM; with OVCAR-8 ovarian it was 5.25 µM. In addition, the GI50 in the assay on SW-620 colon was 1.96 µM; with HOP-62 NSCLC, 5.76 µM. Moreover, the TGI with KM12 colon was 10.8 µM; in the assay on SK-MEL-2 melanoma, 13.4 µM; with OVCAR-5 ovarian, 14.4 µM; in the assay on MALME-3M melanoma, 11.8 µM; with SF-295 CNS, 15.4 µM; with OVCAR-8 ovarian it was 11.6 µM. Moreover, the figures for the TGI in the assay on SW-620 colon and in the assay on HOP-62 NSCLC were 7.57 µM and 12 µM, respectively.

In the case of `CS(=O)(=O)Nc1cc(-c2ccc3ncc(C#N)c(Nc4ccc(F)c(Cl)c4)c3c2)cnc1Cl`, the GI50 is 0.276 µM in the assay with KM12 colon; 0.133 µM with SK-MEL-2 melanoma; 0.308 µM in the assay on OVCAR-5 ovarian; 0.0354 µM in the assay on MALME-3M melanoma; 0.181 µM in the assay with SF-295 CNS; 0.331 µM in the assay on OVCAR-8 ovarian. Besides, the GI50 was 0.107 µM with SW-620 colon and 0.195 µM in the assay on HOP-62 NSCLC. Besides, the TGI in the assay on KM12 colon was 1.91 µM; in the assay on SK-MEL-2 melanoma it was 0.53 µM; in the assay with OVCAR-5 ovarian it was 2.29 µM; with MALME-3M melanoma it was 0.278 µM; in the assay with SF-295 CNS, 0.82 µM; in the assay on OVCAR-8 ovarian it was over 100 µM. The TGI turned out to be 4.31 µM in the assay on SW-620 colon and 8.42 µM in the assay on HOP-62 NSCLC.

As to `COc1cccc2nc(Nc3cccc(NC(=O)c4ccc(N5CCN(C)CC5)c(C(F)(F)F)c4)c3)ccc12`, the GI50 in the assay with KM12 colon was 1.09 µM; in the assay with SK-MEL-2 melanoma, 1.36 µM; in the assay on OVCAR-5 ovarian, 1.53 µM; with MALME-3M melanoma, 0.816 µM; with SF-295 CNS, 0.967 µM; in the assay with OVCAR-8 ovarian, 1.69 µM. Besides, the GI50 with SW-620 colon was 0.968 µM; in the assay on HOP-62 NSCLC, 0.856 µM. For the same compound, the TGI in the assay with KM12 colon was found to be 2.56 µM; in the assay on SK-MEL-2 melanoma, 3.65 µM; in the assay with OVCAR-5 ovarian, 4.99 µM; with MALME-3M melanoma, 1.62 µM; with SF-295 CNS, 1.92 µM; with OVCAR-8 ovarian it was 5.93 µM. For the same compound, the results for the TGI in the assay with SW-620 colon and in the assay on HOP-62 NSCLC were 2.08 µM and 1.74 µM, respectively.

For `CC(C)C[C@H](NC(=O)[C@@H](Cc1ccccc1)n1ccc(Nc2ccccc2)cc1=O)B(O)O`, the GI50 with KM12 colon is 0.375 µM; in the assay with SK-MEL-2 melanoma, 0.316 µM; with OVCAR-5 ovarian it was 1.7 µM; in the assay with MALME-3M melanoma, 0.382 µM; in the assay with SF-295 CNS it was 0.285 µM; with OVCAR-8 ovarian, 1.88 µM. The GI50 with SW-620 colon is 0.32 µM; in the assay on HOP-62 NSCLC, 1.74 µM. The TGI with KM12 colon is 1.51 µM; with SK-MEL-2 melanoma it was 1.59 µM; with OVCAR-5 ovarian, 8.34 µM; with MALME-3M melanoma it was 2.48 µM; in the assay with SF-295 CNS, 1.22 µM; in the assay with OVCAR-8 ovarian it was 74.6 µM. Moreover, the TGI amounted to 14.4 µM in the assay on SW-620 colon and 7.04 µM in the assay with HOP-62 NSCLC.

As to `COC(=O)C1c2cc3c(c(O)c2CCC1(C)O)C(=O)c1c(O)cc2c(c1C3=O)OC1OC2(C)C(O)C(N(C)C)C1O` (stereo unspecified), the TGI in the assay on KM12 colon came to 1.52 µM; with SK-MEL-2 melanoma, 18.8 µM; in the assay with OVCAR-5 ovarian, 1.03 µM; with MALME-3M melanoma, 1.17 µM; in the assay with SF-295 CNS it was 1.87 µM; in the assay on OVCAR-8 ovarian it was 0.591 µM. Moreover, the TGI amounted to 1.08 µM in the assay with SW-620 colon and 1.58 µM in the assay on HOP-62 NSCLC.

On to `CNC(=O)/C=C/C1=CN2C(=O)c3ccc(C)c(O)c3NC(OC)C2C1` (stereo unspecified), for which the TGI in the assay with KM12 colon is under 0.0183 µM; with SK-MEL-2 melanoma it was under 0.01 µM; in the assay with OVCAR-5 ovarian it was over 31 µM; in the assay with MALME-3M melanoma it was 0.0448 µM; with SF-295 CNS it was 1.07 µM; in the assay on OVCAR-8 ovarian it was 0.192 µM. For the same compound, the results for the TGI with SW-620 colon and with HOP-62 NSCLC were 24.4 µM and 0.328 µM, respectively.

For `CC(=O)[O-].CC(=O)[O-].O=C([CH-]C(=O)c1ccccc1)c1ccccc1.[Nd+3].[OH3+]`, the GI50 in the assay on KM12 colon is 14 µM; in the assay on SK-MEL-2 melanoma, 16.4 µM; in the assay with OVCAR-5 ovarian it was 68.4 µM; in the assay with MALME-3M melanoma, 26.1 µM; in the assay with SF-295 CNS it was 10.7 µM; in the assay on OVCAR-8 ovarian it was 15.8 µM. The figures for the GI50 in the assay with SW-620 colon and with HOP-62 NSCLC were 16.3 µM and 14.7 µM, respectively. The TGI in the assay on KM12 colon is over 100 µM; with SK-MEL-2 melanoma it was 50.7 µM; with OVCAR-5 ovarian, over 100 µM; with MALME-3M melanoma it was 85.2 µM; in the assay with SF-295 CNS, 35.2 µM; with OVCAR-8 ovarian, over 100 µM. Also, the TGI with SW-620 colon is over 100 µM; in the assay on HOP-62 NSCLC, 73.6 µM.
